Measured values as given in patent publication US20180008587A1, “THIOHYDANTOIN ANDROGEN RECEPTOR ANTAGONISTS FOR THE TREATMENT OF CANCER” (Jaressen Pharmaceutica NV, priority 2016, published 2018).
Residue numbers refer to the chain shown, from its start. Like-named read-outs stand apart in the source and are kept apart here.

Experiments:
Assay type in all cases: cell-based
[1] = molecular target: T1, F876L mutant Androgen Receptor (AR-F876L) (Homo sapiens, UniProt P10275, F877L); test: LNCaP-AR-F876L ANT reporter assay (ARE firefly luciferase, antagonist mode); conditions: for Emax: read-out: LNCaP-AR-F876L ANT MAX % Inh; for IC50: read-out: LNCaP-AR-F876L ANT pIC50 (converted)
T1 construct: expressed in transfected cells; host or cells: LNCaP (LNCaP F876L)
T1 sequence (P10275 1-920 F877L): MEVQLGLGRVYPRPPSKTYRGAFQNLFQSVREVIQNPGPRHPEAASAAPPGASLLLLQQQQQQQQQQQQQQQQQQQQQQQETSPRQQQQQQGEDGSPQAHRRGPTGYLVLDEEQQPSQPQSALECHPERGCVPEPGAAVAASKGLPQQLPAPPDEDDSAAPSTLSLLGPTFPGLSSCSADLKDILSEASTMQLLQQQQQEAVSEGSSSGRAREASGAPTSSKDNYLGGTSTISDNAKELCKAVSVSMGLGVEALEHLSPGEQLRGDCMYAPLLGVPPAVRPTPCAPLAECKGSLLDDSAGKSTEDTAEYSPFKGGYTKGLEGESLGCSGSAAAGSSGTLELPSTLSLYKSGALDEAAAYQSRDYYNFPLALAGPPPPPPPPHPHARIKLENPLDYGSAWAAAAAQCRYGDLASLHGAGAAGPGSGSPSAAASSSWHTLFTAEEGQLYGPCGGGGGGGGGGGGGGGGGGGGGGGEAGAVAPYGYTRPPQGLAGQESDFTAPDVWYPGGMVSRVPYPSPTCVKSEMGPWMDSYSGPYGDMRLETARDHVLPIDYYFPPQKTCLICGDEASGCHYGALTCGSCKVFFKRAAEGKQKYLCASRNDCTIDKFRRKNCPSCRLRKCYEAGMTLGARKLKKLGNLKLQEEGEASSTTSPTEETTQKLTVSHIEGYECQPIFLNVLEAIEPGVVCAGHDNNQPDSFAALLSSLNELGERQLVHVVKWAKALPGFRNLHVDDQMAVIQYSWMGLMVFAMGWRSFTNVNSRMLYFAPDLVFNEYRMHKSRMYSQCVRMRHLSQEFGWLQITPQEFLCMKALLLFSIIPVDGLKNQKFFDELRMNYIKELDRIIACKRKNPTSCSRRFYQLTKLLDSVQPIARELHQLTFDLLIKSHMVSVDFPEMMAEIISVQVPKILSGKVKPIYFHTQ
Summary of the method: (§1)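 Read-out is luciferase luminescence taken 1 h after Steady-Glo addition, following 20-24 h compound exposure at 37 °C in LNCaP pools stably carrying wild-type or F876L AR. Cells were grown in charcoal-stripped serum. Antagonist wells received agonist at 400 pM (WT) or 600 pM (F876L).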

[2] = molecular target: T1, F876L mutant Androgen Receptor (AR-F876L); test: LNCaP-AR-F876L AG reporter assay (ARE firefly luciferase, agonist mode); conditions: for Emax: read-out: LNCaP-AR-F876L AG MAX % Stim
Summary of the method: as §1

[3] = molecular target: T2, wild-type Androgen Receptor (AR-wt) (Homo sapiens, UniProt P10275); test: LNCaP-AR-wt ANT reporter assay (ARE firefly luciferase, antagonist mode); conditions: for IC50: antagonist mode, 400 pM R-1881 challenge, −Log10(IC50 [Molar]), read-out: LNCaP-AR-wt ANT pIC50 (converted); for Emax: read-out: LNCaP-AR-wt ANT MAX % Inh
T2 construct: expressed in transfected cells; host or cells: LNCaP (LNCaP AR (cs))
T2 sequence (P10275 1-920): T1 sequence (P10275 1-920 F877L) with L877F
Summary of the method: as §1

[4] = molecular target: T2, wild-type Androgen Receptor (AR-wt); test: LNCaP-AR-wt AG reporter assay (ARE firefly luciferase, agonist mode); conditions: for Emax: read-out: LNCaP-AR-wt AG MAX % Stim
Summary of the method: as §1

[5] = maximum % inhibition of R1881 control response over tested concentration range
[6] = agonist mode, −Log10(EC50 [Molar]), read-out: LNCaP-AR-F876L AG pEC50 (converted)
[7] = maximum % stimulation (agonist response) over tested concentration range
[8] = agonist mode, −Log10(EC50 [Molar]), read-out: LNCaP-AR-wt AG pEC50 (converted)

| Structure (SMILES) | Emax [1, 5] [%] | EC50 [2, 6] [µM] | Emax [2, 7] [%] | Emax [3, 5] [%] | EC50 [4, 8] [µM] | Emax [4, 7] [%] | IC50 [1] [µM] | IC50 [3] [µM] | Emax [1] [%] | EC50 [2] [µM] | Emax [2] [%] | Emax [3] [%] | EC50 [4] [µM] | Emax [4] [%] |
| --- | --- | --- | --- | --- | --- | --- | --- | --- | --- | --- | --- | --- | --- | --- |
| Cc1cc(N2C(=O)C3(CCC3)N(c3ccc(C4CCOCC4)cc3)C2=S)cnc1C#N [Cpd 101, 3-methyl-5-[5-oxo-8-(4-tetrahydropyran-4-ylphenyl)-7-thioxo-6,8-diazaspiro[3.4]octan-6-yl]pyridine-2-carbonitrile] |  |  |  |  |  |  | 0.363 | 0.479 | 95.3 | > 15.1 | 1.7 | 99.4 | > 15.1 | 1.1 |
| N#Cc1ncc(N2C(=O)C3(CCC3)N(c3ccc(C(=O)NCc4cccnc4)c(F)c3)C2=S)cc1C(F)(F)F [Cpd 67, 4-[6-[6-cyano-5-(trifluoromethyl)-3-pyridyl]-5-oxo-7-thioxo-6,8-diazaspiro[3.4]octan-8-yl]-2-fluoro-N-(3-pyridylmethyl)benzamide] |  |  |  |  |  |  | 0.407 | 1.26 | 97.4 | > 15.1 | 0.8 | 99.2 | > 15.1 | 1.5 |
| CC(C)(O)CNC(=O)c1ccc(N2C(=S)N(c3cnc(C#N)c(C(F)(F)F)c3)C(=O)C23CCC3)cc1F [Cpd 17, 4-[6-[6-cyano-5-(trifluoromethyl)-3-pyridyl]-5-oxo-7-thioxo-6,8-diazaspiro[3.4]octan-8-yl]-2-fluoro-N-(2-hydroxy-2-methyl-propyl)benzamide] |  |  |  |  |  |  | 1.1 | 2.69 | 97.2 | > 15.1 | 0.1 | 95.5 | > 15.1 | -0.1 |
| CN1CCC(Oc2ccc(N3C(=S)N(c4cnc(C#N)c(C(F)(F)F)c4)C(=O)C34CCC4)cc2F)CC1 [Cpd 28, 5-[8-[3-fluoro-4-[(1-methyl-4-piperidyl)oxy]phenyl]-5-oxo-7-thioxo-6,8-diazaspiro[3.4]octan-6-yl]-3-(trifluoromethyl)pyridine-2-carbonitrile] |  |  |  |  |  |  | 0.204 | 0.501 | 100 | > 15.1 | 0 | 99.6 | > 15.1 | -0.1 |
| N#Cc1ncc(N2C(=O)C3(CCC3)N(c3ccc(Oc4cncnc4)cc3)C2=S)cc1C(F)(F)F [Cpd 88, 5-[5-oxo-8-(4-pyrimidin-5-yloxyphenyl)-7-thioxo-6,8-diazaspiro[3.4]octan-6-yl]-3-(trifluoromethyl)pyridine-2-carbonitrile] |  |  |  |  |  |  | 0.138 | 0.631 | 87.3 | > 15.1 | 0.7 | 97.2 | > 15.1 | 0.7 |
| N#Cc1ncc(N2C(=O)C3(CCC3)N(c3ccc4[nH]ncc4c3)C2=S)cc1C(F)(F)F [Cpd 92, 5-[8-(1H-indazol-5-yl)-5-oxo-7-thioxo-6,8-diazaspiro[3.4]octan-6-yl]-3-(trifluoromethyl)pyridine-2-carbonitrile] |  |  |  |  |  |  | 0.257 | 0.631 | 98.2 | > 15.1 | 1.3 | 94.7 | > 15.1 | 2.8 |

Now from value to molecule, other results behind:

| Emax [1, 5] [%] | EC50 [2, 6] [µM] | Emax [2, 7] [%] | Emax [3, 5] [%] | EC50 [4, 8] [µM] | Emax [4, 7] [%] | Structure (SMILES) | IC50 [1] [µM] | IC50 [3] [µM] | Emax [1] [%] | EC50 [2] [µM] | Emax [2] [%] | Emax [3] [%] | EC50 [4] [µM] | Emax [4] [%] |
| --- | --- | --- | --- | --- | --- | --- | --- | --- | --- | --- | --- | --- | --- | --- |
| 98.7 | > 15.1 | 3 | 93.6 | > 15.1 | 1.2 | CN1CCN(CCNC(=O)c2ccc(N3C(=S)N(c4cnc(C#N)c(C(F)(F)F)c4)C(=O)C34CCC4)cc2F)CC1 [Cpd 121, 4-[6-[6-cyano-5-(trifluoromethyl)-3-pyridyl]-5-oxo-7-thioxo-6,8-diazaspiro[3.4]octan-8-yl]-2-fluoro-N-[2-(4-methylpiperazin-1-yl)ethyl]benzamide] | 0.575 | 2.75 |  |  |  |  |  |  |
| 95.9 | > 15.1 | 1 | 96.5 | > 15.1 | 0.7 | Cc1cc(N2C(=O)C3(CCC3)N(c3ccc(C(=O)Nc4cccc(Cl)c4)c(F)c3)C2=S)cnc1C#N [Cpd 78, N-(3-chlorophenyl)-4-[6-(6-cyano-5-methyl-3-pyridyl)-5-oxo-7-thioxo-6,8-diazaspiro[3.4]octan-8-yl]-2-fluoro-benzamide] | 1.05 | 1.32 |  |  |  |  |  |  |
| 96.4 | > 15.1 | 3.5 | 100 | > 15.1 | 0.7 | CNC(=O)c1ccc(N2C(=S)N(c3cnc(C#N)c(C)c3)C(=O)C23CCC3)cc1OC [Cpd 117, 4-[6-(6-cyano-5-methyl-3-pyridyl)-5-oxo-7-thioxo-6,8-diazaspiro[3.4]octan-8-yl]-2-methoxy-N-methyl-benzamide] | 0.288 | 1.26 |  |  |  |  |  |  |
| 99.5 | > 15.1 | 0.5 | 98.8 | > 15.1 | 0.1 | Cc1cc(N2C(=O)C3(CCC3)N(c3ccc(OC4CCNCC4)cc3)C2=S)cnc1C#N [Cpd 83, 3-methyl-5-[5-oxo-8-[4-(4-piperidyloxy)phenyl]-7-thioxo-6,8-diazaspiro[3.4]octan-6-yl]pyridine-2-carbonitrile] | 1 | 2.24 |  |  |  |  |  |  |
| 99.6 | > 15.1 |  | 101 | > 15.1 |  | N#Cc1ncc(N2C(=O)C3(CCC3)N(c3ccc(O)cc3F)C2=S)cc1C(F)(F)F [Cpd 47, 5-[8-(2-fluoro-4-hydroxy-phenyl)-5-oxo-7-thioxo-6,8-diazaspiro[3.4]octan-6-yl]-3-(trifluoromethyl)pyridine-2-carbonitrile] | 0.195 | 0.245 |  |  | 0.4 |  |  | 0.9 |
| 85.9 | > 15.1 |  | 97.2 | > 15.1 |  | N#Cc1ncc(N2C(=O)C3(CCC3)N(c3ccc(Oc4ccccc4)cc3)C2=S)cc1C(F)(F)F [Cpd 99, 5-[5-oxo-8-(4-phenoxyphenyl)-7-thioxo-6,8-diazaspiro[3.4]octan-6-yl]-3-(trifluoromethyl)pyridine-2-carbonitrile] | 0.389 | 0.417 |  |  | 1.6 |  |  | 1.6 |
